Legend:
Assay in all cases: relative viability (nuclei count vs DMSO), 5 days (fraction); higher = more cells survive
[1] = compound: CC1=C(C(=O)N2C=CSC2=N1)CCN3CCC(=C(C4=CC=CC=C4)C5=CC=C(C=C5)F)CC3 + CS(=O)(=O)N1CCN(Cc2cc3nc(-c4cccc5[nH]ncc45)nc(N4CCOCC4)c3s2)CC1 [Pictilisib] (partner 1 µM)
Outline: (§1)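 For relative viability, nuclei counts in treated wells were divided by those in vehicle wells. Lung cancer cell lines had been pin-tool dosed in 1536-well plates the day after seeding and cultured for 5 days, then fixed and stained in one step (final 0.05% Triton X-100, 1% formaldehyde, 1 ug/ml Hoechst) and imaged at 4×. Doses were one drug alone or a fixed anchor-drug dose plus five library-drug doses (not always all listed) in √10 steps, and values are duplicate-plate medians.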

[2] = compound: CC1=C(C(=O)N2C=CSC2=N1)CCN3CCC(=C(C4=CC=CC=C4)C5=CC=C(C=C5)F)CC3 + NC(=O)Nc1cc(-c2cccc(F)c2)sc1C(=O)N[C@H]1CCCNC1 [AZD7762] (partner 0.2 µM)
Outline: as §1

[3] = compound: CC1=C(C(=O)N2C=CSC2=N1)CCN3CCC(=C(C4=CC=CC=C4)C5=CC=C(C=C5)F)CC3 + COc1cc2c(Oc3ccc(NC(=O)C4(C(=O)Nc5ccc(F)cc5)CC4)cc3F)ccnc2cc1OCCCN1CCOCC1 [Foretinib] (partner 0.25 µM)
Outline: as §1

[4] = compound: CC1=C(C(=O)N2C=CSC2=N1)CCN3CCC(=C(C4=CC=CC=C4)C5=CC=C(C=C5)F)CC3 + O=C(CCCCCCC(=O)Nc1ccccc1)NO [Vorinostat] (partner 1 µM)
Outline: as §1

Row | Cell Line | relative viability ([1]; first compound 0.08 µM) | relative viability ([1]; first compound 0.253 µM) | relative viability ([1]; first compound 0.8 µM) | relative viability ([1]; first compound 2.53 µM) | relative viability ([1]; first compound 8 µM) | relative viability ([2]; first compound 0.08 µM) | relative viability ([2]; first compound 0.253 µM) | relative viability ([2]; first compound 0.8 µM) | relative viability ([2]; first compound 2.53 µM) | relative viability ([2]; first compound 8 µM) | relative viability ([3]; first compound 0.08 µM) | relative viability ([3]; first compound 0.253 µM) | relative viability ([3]; first compound 0.8 µM) | relative viability ([3]; first compound 2.53 µM) | relative viability ([3]; first compound 8 µM) | relative viability ([4]; first compound 0.08 µM) | relative viability ([4]; first compound 0.8 µM) | relative viability ([4]; first compound 2.53 µM) | relative viability ([4]; first compound 8 µM) | relative viability ([4]; first compound 0.253 µM)
1 | EMC-BAC-2 | 0.543 | 0.516 | 0.505 | 0.617 | 0.424 | 1.18 | 0.93 | 1.01 | 1.13 | 1.01 | 0.945 | 0.982 | 0.981 | 1.12 | 0.972 | 0.416 | 0.343 | 0.398 | 0.377 | –
2 | EBC-1 | 0.343 | 0.37 | 0.29 | 0.355 | 0.366 | – | – | – | – | – | 0.109 | 0.101 | 0.104 | 0.108 | 0.106 | – | – | – | – | –
3 | NCI-H2009 | 1.05 | 0.843 | 0.736 | 0.956 | 0.723 | – | – | – | – | – | 1.33 | 1.24 | 1.18 | 1.26 | 1.13 | 0.71 | 0.728 | 0.778 | 0.556 | 0.715
4 | NCI-H460 | 0.326 | 0.329 | 0.329 | 0.366 | 0.209 | 0.769 | 0.604 | 0.712 | 0.6 | 0.482 | 0.782 | 0.796 | 1.16 | 1.13 | 0.232 | 0.516 | 1.05 | 1.22 | 0.261 | 0.352
5 | NCI-H3122 | 0.72 | 0.678 | 0.574 | 0.768 | 0.623 | 0.86 | 1.05 | 0.983 | 1.14 | 0.59 | 1.01 | 1.1 | 0.931 | 0.991 | 0.91 | 0.875 | 1.08 | 0.987 | 0.516 | 1.1
6 | NCI-H1563 | 0.542 | 0.684 | 0.66 | 0.633 | 0.637 | – | – | – | – | – | 0.943 | 0.87 | 0.907 | 0.946 | 0.769 | – | – | – | – | –
7 | NCI-H1666 | 0.393 | 0.434 | 0.381 | 0.461 | 0.431 | 0.787 | 0.819 | 0.847 | 0.946 | 0.673 | 0.924 | 0.956 | 0.949 | 1.04 | 0.798 | 1 | 1.11 | 1.09 | 0.891 | 0.911
8 | UMC-11 | 0.953 | 0.811 | 0.8 | 1.15 | 0.733 | – | – | – | – | – | 0.948 | 1.07 | 1.08 | 1.18 | 0.692 | 0.38 | 0.354 | 0.333 | 0.405 | –
9 | SW 1573 | – | 0.478 | 0.478 | 0.486 | 0.264 | – | – | – | – | – | 1.07 | 0.829 | 0.814 | 0.947 | 0.72 | 0.808 | 1.01 | 0.795 | 0.423 | 0.697
10 | SK-LU-1 | 0.538 | 0.587 | 0.655 | 0.573 | 0.494 | – | – | – | – | – | 0.909 | 0.597 | 1.01 | 1.12 | 0.581 | 0.773 | 0.75 | 0.783 | 0.713 | 0.708
11 | Calu-6 | 0.937 | 0.847 | 0.915 | 1.2 | 0.54 | – | – | – | – | – | 0.93 | 0.93 | 0.863 | 0.898 | 0.707 | – | – | – | – | –
12 | NCI-H1299 | 1 | 0.906 | 0.754 | 1.05 | 0.575 | – | – | – | – | – | 1.19 | 1.14 | 1.13 | 1.14 | 1.02 | – | – | – | – | –
13 | NCI-H1650 | 0.586 | 0.682 | 0.519 | 0.586 | 0.389 | – | – | – | – | – | 1.09 | 1.12 | 1.15 | 1.21 | 0.65 | 0.426 | 0.559 | 0.593 | 0.327 | 0.525
14 | SK-MES-1 | 0.386 | 0.396 | 0.357 | 0.33 | 0.261 | – | – | – | – | – | 0.979 | 1.07 | 0.928 | 0.731 | 0.864 | 1.1 | 1.29 | 1.17 | 0.698 | 1.18
15 | NCI-H2228 | 0.648 | 0.295 | 0.276 | 0.504 | 0.283 | – | – | – | – | – | 0.689 | 0.645 | 1.13 | 0.864 | 0.55 | 0.474 | 0.636 | 0.599 | 0.337 | 0.557
16 | NCI-H1792 | 0.241 | 0.257 | 0.251 | 0.232 | 0.308 | 0.649 | 0.655 | 0.62 | 0.636 | 0.386 | – | – | – | – | – | – | – | – | – | –
17 | COR-L23 | 0.775 | 0.595 | 0.945 | 0.69 | 0.52 | – | – | – | – | – | 0.898 | 1.02 | 1.07 | 1.23 | 0.584 | 0.438 | 0.46 | 0.421 | 0.405 | 0.365
18 | NCI-H661 | 0.404 | 0.382 | 0.338 | 0.352 | 0.361 | – | – | – | – | – | 0.871 | 1.02 | 0.983 | 1.05 | 0.814 | 0.765 | 0.817 | 0.838 | 0.406 | 0.761

— the supplement of paper PMC10307832
